{"source": "the supplement of paper PMC10307832", "assay_in_all_cases": "relative viability (nuclei count vs DMSO), 5 days (fraction); higher = more cells survive", "key": {"[1]": {"system": "201T", "procedure,_shortened": "(§1)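 Lung cancer cell lines were seeded in 1536-well plates and dosed by pin tool the next day, with either a single drug or a fixed anchor-drug dose combined with five library-drug doses (not always all listed) spaced in √10 steps. Five days later, one step fixed the cells and stained their nuclei (final 0.05% Triton X-100, 1% formaldehyde, 1 ug/ml Hoechst), and nuclei were counted on 4× images. Relative viability is the nuclei count in treated wells divided by the count in vehicle wells, and each value is the median of duplicate plates.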"}, "[2]": {"system": "ABC-1", "procedure,_shortened": "as §1"}, "[3]": {"system": "BEN", "procedure,_shortened": "as §1"}, "[4]": {"system": "CAL-12T", "procedure,_shortened": "as §1"}, "[5]": {"system": "H3255", "procedure,_shortened": "as §1"}, "[6]": {"system": "HARA", "procedure,_shortened": "as §1"}, "[7]": {"system": "HCC-15", "procedure,_shortened": "as §1"}, "[8]": {"system": "HCC-827", "procedure,_shortened": "as §1"}, "[9]": {"system": "LC-2-ad", "procedure,_shortened": "as §1"}, "[10]": {"system": "LCLC-103H", "procedure,_shortened": "as §1"}, "[11]": {"system": "LOU-NH91", "procedure,_shortened": "as §1"}, "[12]": {"system": "LU99A", "procedure,_shortened": "as §1"}, "[13]": {"system": "NCI-H1355", "procedure,_shortened": "as §1"}, "[14]": {"system": "NCI-H1666", "procedure,_shortened": "as §1"}, "[15]": {"system": "NCI-H1755", "procedure,_shortened": "as §1"}, "[16]": {"system": "NCI-H1993", "procedure,_shortened": "as §1"}, "[17]": {"system": "NCI-H2085", "procedure,_shortened": "as §1"}, "[18]": {"system": "NCI-H2170", "procedure,_shortened": "as §1"}, "[19]": {"system": "NCI-H2228", "procedure,_shortened": "as §1"}, "[20]": {"system": "NCI-H23", "procedure,_shortened": "as §1"}, "[21]": {"system": "NCI-H727", "procedure,_shortened": "as §1"}, "[22]": {"system": "PC-3 [JPC-3]", "procedure,_shortened": "as §1"}, "[23]": {"system": "RERF-LC-KJ", "procedure,_shortened": "as §1"}, "[24]": {"system": "SK-LU-1", "procedure,_shortened": "as §1"}}}
{"smiles": "Nc1cccc2c1CN(C1CCC(=O)NC1=O)C2=O", "note": "(centres undefined) [Lenalidomide] + C[C@@H](Oc1cc(-c2cnn(C3CCNCC3)c2)cnc1N)c1c(Cl)ccc(F)c1Cl [Crizotinib] (partner 1 µM)", "values": [{"measurement": "relative viability", "setting": "[1]; first compound 0.253 µM", "value": 1.05}, {"measurement": "relative viability", "setting": "[1]; first compound 0.8 µM", "value": 1.02}, {"measurement": "relative viability", "setting": "[1]; first compound 2.53 µM", "value": 1.04}, {"measurement": "relative viability", "setting": "[1]; first compound 8 µM", "value": 1.05}, {"measurement": "relative viability", "setting": "[2]; first compound 0.253 µM", "value": 1.06}, {"measurement": "relative viability", "setting": "[2]; first compound 0.8 µM", "value": 1.25}, {"measurement": "relative viability", "setting": "[2]; first compound 2.53 µM", "value": 1.37}, {"measurement": "relative viability", "setting": "[2]; first compound 8 µM", "value": 1.43}, {"measurement": "relative viability", "setting": "[3]; first compound 0.253 µM", "value": 1.04}, {"measurement": "relative viability", "setting": "[3]; first compound 0.8 µM", "value": 0.642}, {"measurement": "relative viability", "setting": "[3]; first compound 2.53 µM", "value": 1.07}, {"measurement": "relative viability", "setting": "[3]; first compound 8 µM", "value": 0.85}, {"measurement": "relative viability", "setting": "[4]; first compound 0.253 µM", "value": 0.617}, {"measurement": "relative viability", "setting": "[4]; first compound 0.8 µM", "value": 0.587}, {"measurement": "relative viability", "setting": "[4]; first compound 2.53 µM", "value": 0.692}, {"measurement": "relative viability", "setting": "[4]; first compound 8 µM", "value": 0.857}, {"measurement": "relative viability", "setting": "[5]; first compound 0.253 µM", "value": 0.79}, {"measurement": "relative viability", "setting": "[5]; first compound 0.8 µM", "value": 0.885}, {"measurement": "relative viability", "setting": "[5]; first compound 2.53 µM", "value": 0.872}, {"measurement": "relative viability", "setting": "[5]; first compound 8 µM", "value": 0.946}, {"measurement": "relative viability", "setting": "[6]; first compound 0.253 µM", "value": 1.02}, {"measurement": "relative viability", "setting": "[6]; first compound 0.8 µM", "value": 1.05}, {"measurement": "relative viability", "setting": "[6]; first compound 2.53 µM", "value": 1.2}, {"measurement": "relative viability", "setting": "[6]; first compound 8 µM", "value": 1.13}, {"measurement": "relative viability", "setting": "[7]; first compound 0.253 µM", "value": 0.809}, {"measurement": "relative viability", "setting": "[7]; first compound 2.53 µM", "value": 1.03}, {"measurement": "relative viability", "setting": "[7]; first compound 8 µM", "value": 0.799}, {"measurement": "relative viability", "setting": "[8]; first compound 0.253 µM", "value": 1.02}, {"measurement": "relative viability", "setting": "[8]; first compound 0.8 µM", "value": 1.02}, {"measurement": "relative viability", "setting": "[8]; first compound 2.53 µM", "value": 0.964}, {"measurement": "relative viability", "setting": "[8]; first compound 8 µM", "value": 1.06}, {"measurement": "relative viability", "setting": "[9]; first compound 0.253 µM", "value": 0.516}, {"measurement": "relative viability", "setting": "[9]; first compound 0.8 µM", "value": 0.43}, {"measurement": "relative viability", "setting": "[9]; first compound 2.53 µM", "value": 0.547}, {"measurement": "relative viability", "setting": "[9]; first compound 8 µM", "value": 0.511}, {"measurement": "relative viability", "setting": "[10]; first compound 0.253 µM", "value": 1.03}, {"measurement": "relative viability", "setting": "[10]; first compound 0.8 µM", "value": 0.965}, {"measurement": "relative viability", "setting": "[10]; first compound 2.53 µM", "value": 1.05}, {"measurement": "relative viability", "setting": "[10]; first compound 8 µM", "value": 0.904}, {"measurement": "relative viability", "setting": "[11]; first compound 0.253 µM", "value": 0.73}, {"measurement": "relative viability", "setting": "[11]; first compound 0.8 µM", "value": 0.732}, {"measurement": "relative viability", "setting": "[11]; first compound 2.53 µM", "value": 0.714}, {"measurement": "relative viability", "setting": "[11]; first compound 8 µM", "value": 0.704}, {"measurement": "relative viability", "setting": "[12]; first compound 0.253 µM", "value": 0.525}, {"measurement": "relative viability", "setting": "[12]; first compound 0.8 µM", "value": 0.517}, {"measurement": "relative viability", "setting": "[12]; first compound 2.53 µM", "value": 0.559}, {"measurement": "relative viability", "setting": "[12]; first compound 8 µM", "value": 0.54}, {"measurement": "relative viability", "setting": "[13]; first compound 0.253 µM", "value": 1.04}, {"measurement": "relative viability", "setting": "[13]; first compound 0.8 µM", "value": 0.956}, {"measurement": "relative viability", "setting": "[13]; first compound 2.53 µM", "value": 1.26}, {"measurement": "relative viability", "setting": "[13]; first compound 8 µM", "value": 0.923}, {"measurement": "relative viability", "setting": "[14]; first compound 0.253 µM", "value": 0.973}, {"measurement": "relative viability", "setting": "[14]; first compound 0.8 µM", "value": 0.807}, {"measurement": "relative viability", "setting": "[14]; first compound 2.53 µM", "value": 1.19}, {"measurement": "relative viability", "setting": "[14]; first compound 8 µM", "value": 1.11}, {"measurement": "relative viability", "setting": "[15]; first compound 0.253 µM", "value": 0.828}, {"measurement": "relative viability", "setting": "[15]; first compound 0.8 µM", "value": 0.85}, {"measurement": "relative viability", "setting": "[15]; first compound 2.53 µM", "value": 0.9}, {"measurement": "relative viability", "setting": "[15]; first compound 8 µM", "value": 0.821}, {"measurement": "relative viability", "setting": "[16]; first compound 0.253 µM", "value": 0.626}, {"measurement": "relative viability", "setting": "[16]; first compound 0.8 µM", "value": 0.852}, {"measurement": "relative viability", "setting": "[16]; first compound 2.53 µM", "value": 0.761}, {"measurement": "relative viability", "setting": "[16]; first compound 8 µM", "value": 0.777}, {"measurement": "relative viability", "setting": "[17]; first compound 0.253 µM", "value": 0.866}, {"measurement": "relative viability", "setting": "[17]; first compound 0.8 µM", "value": 0.742}, {"measurement": "relative viability", "setting": "[17]; first compound 2.53 µM", "value": 0.97}, {"measurement": "relative viability", "setting": "[17]; first compound 8 µM", "value": 0.926}, {"measurement": "relative viability", "setting": "[18]; first compound 0.253 µM", "value": 1.21}, {"measurement": "relative viability", "setting": "[18]; first compound 0.8 µM", "value": 1.14}, {"measurement": "relative viability", "setting": "[18]; first compound 2.53 µM", "value": 1.17}, {"measurement": "relative viability", "setting": "[18]; first compound 8 µM", "value": 1.14}, {"measurement": "relative viability", "setting": "[19]; first compound 0.253 µM", "value": 0.421}, {"measurement": "relative viability", "setting": "[19]; first compound 0.8 µM", "value": 0.362}, {"measurement": "relative viability", "setting": "[19]; first compound 2.53 µM", "value": 0.586}, {"measurement": "relative viability", "setting": "[19]; first compound 8 µM", "value": 0.457}, {"measurement": "relative viability", "setting": "[20]; first compound 0.253 µM", "value": 0.521}, {"measurement": "relative viability", "setting": "[20]; first compound 0.8 µM", "value": 0.439}, {"measurement": "relative viability", "setting": "[20]; first compound 2.53 µM", "value": 0.605}, {"measurement": "relative viability", "setting": "[20]; first compound 8 µM", "value": 0.62}, {"measurement": "relative viability", "setting": "[21]; first compound 0.253 µM", "value": 0.83}, {"measurement": "relative viability", "setting": "[21]; first compound 2.53 µM", "value": 0.894}, {"measurement": "relative viability", "setting": "[21]; first compound 8 µM", "value": 0.952}, {"measurement": "relative viability", "setting": "[22]; first compound 0.253 µM", "value": 0.933}, {"measurement": "relative viability", "setting": "[22]; first compound 0.8 µM", "value": 0.936}, {"measurement": "relative viability", "setting": "[22]; first compound 2.53 µM", "value": 1.02}, {"measurement": "relative viability", "setting": "[22]; first compound 8 µM", "value": 1.09}, {"measurement": "relative viability", "setting": "[23]; first compound 0.253 µM", "value": 0.8}, {"measurement": "relative viability", "setting": "[23]; first compound 0.8 µM", "value": 0.778}, {"measurement": "relative viability", "setting": "[23]; first compound 2.53 µM", "value": 0.827}, {"measurement": "relative viability", "setting": "[23]; first compound 8 µM", "value": 0.835}, {"measurement": "relative viability", "setting": "[24]; first compound 0.253 µM", "value": 1.05}, {"measurement": "relative viability", "setting": "[24]; first compound 0.8 µM", "value": 1.06}, {"measurement": "relative viability", "setting": "[24]; first compound 2.53 µM", "value": 0.867}, {"measurement": "relative viability", "setting": "[24]; first compound 8 µM", "value": 0.852}]}
